Like-named read-outs stand apart in the source and are kept apart here.
System: Human prostate PC3 tumor cells
Experiment: aFGF/bFGF-induced resistance and reversal by suramin, sulforhodamine B assay
Assay type: cell-based
Description: The experimental conditions are described briefly below. […] Cell number was measured using the sulforhodamine B assay which measures the total protein concentration. […] The FGF-induced resistance was dependent on the FGF concentrations, with a higher resistance at higher FGF concentrations.

[1] = Homo sapiens, read-out: IC50, Control (drug treatment only, without FGF treatment), No suramin, drug 96 hours
[2] = Homo sapiens, read-out: IC50, aFGF 0.3 ng/ml + bFGF 1 ng/ml, No suramin, FGF pretreatment 96 hours, drug 96 hours
[3] = Homo sapiens, read-out: IC50, aFGF 1 ng/ml + bFGF 3 ng/ml, No suramin, FGF pretreatment 96 hours, drug 96 hours
[4] = no suramin, relative to control
[5] = read-out: IC50, Control (without FGF treatment), Suramin, 15 μM, drug 96 hours with 15 μM suramin
[6] = read-out: IC50, aFGF 0.3 ng/ml + bFGF 1 ng/ml, With suramin, FGF pretreatment 96 hours, drug 96 hours with 15 micromolar suramin
[7] = read-out: IC50, aFGF 1 ng/ml + bFGF 3 ng/ml, With suramin, FGF pretreatment 96 hours, drug 96 hours with 15 micromolar suramin

| SMILES | IC50 [1] [nM] | IC50 [2] [nM] | IC50 [3] [nM] | Resistance, Folds, aFGF 0.3 ng/ml + bFGF 1 ng/ml [4] [Folds] | Resistance, Folds, aFGF 1 ng/ml + bFGF 3 ng/ml [4] [Folds] | IC50 [5] [nM] | IC50 [6] [nM] | IC50 [7] [nM] | IC50 (read-out: IC50, Control (drug treatment only, without FGF treatment), No suramin, drug 96 hours) [nM] | IC50 (read-out: IC50, aFGF 0.3 ng/ml + bFGF 1 ng/ml, No suramin, FGF pretreatment 96 hours, drug 96 hours) [nM] | IC50 (read-out: IC50, aFGF 1 ng/ml + bFGF 3 ng/ml, No suramin, FGF pretreatment 96 hours, drug 96 hours) [nM] | Resistance, Folds, aFGF 0.3 ng/ml + bFGF 1 ng/ml [Folds] | Resistance, Folds, aFGF 1 ng/ml + bFGF 3 ng/ml [Folds] | IC50 (Homo sapiens, 96 h, read-out: IC50, Control (drug treatment only, without FGF treatment), No suramin) [nM] | IC50 (Homo sapiens, 96 h, read-out: IC50, aFGF 0.3 ng/ml + bFGF 1 ng/ml, No suramin) [nM] | IC50 (Homo sapiens, 96 h, read-out: IC50, aFGF 1 ng/ml + bFGF 3 ng/ml, No suramin) [nM] | IC50 (read-out: IC50, Control (without FGF treatment), Suramin, 15 μM) [nM] | IC50 (read-out: IC50, aFGF 0.3 ng/ml + bFGF 1 ng/ml, With suramin) [nM] | IC50 (read-out: IC50, aFGF 1 ng/ml + bFGF 3 ng/ml, With suramin) [nM] |
| --- | --- | --- | --- | --- | --- | --- | --- | --- | --- | --- | --- | --- | --- | --- | --- | --- | --- | --- | --- |
| COc1cc(NS(C)(=O)=O)ccc1Nc1c2ccccc2nc2ccccc12 [Amsacrine] | 710 | 1320 | 1900 | 1.85 | 2.66 | 680 | 740 | 670 | – | – | – | – | – | – | – | – | – | – | – |
| CCC1=C[C@@H]2CN(C1)Cc1c([nH]c3ccccc13)[C@@](C(=O)OC)(c1cc3c(cc1OC)N(C)[C@H]1[C@@](O)(C(=O)OC)[C@H](OC(C)=O)[C@]4(CC)C=CCN5CC[C@]31[C@@H]54)C2 [Vinorelbin] | – | – | – | 1.32 | 2.26 | 3.29 | 3.6 | 3.84 | 3.99 | 5.25 | 9.01 | – | – | – | – | – | – | – | – |
| O=P1(NCCCl)OCCCN1CCCl (centres unmarked) [Ifosfamide] | 2660 | 5010 | 8120 | 1.88 | 3.05 | 2230 | 2220 | 2550 | – | – | – | – | – | – | – | – | – | – | – |
| Nc1nc2nc[nH]c2c(=S)[nH]1 [6-Thioguanine] | 280 | 960 | 1440 | 3.43 | 5.14 | 320 | 320 | 300 | – | – | – | – | – | – | – | – | – | – | – |
| COc1cccc2c1C(=O)c1c(O)c3c(c(O)c1C2=O)C[C@@](O)(C(C)=O)C[C@@H]3O[C@H]1C[C@H](N)[C@H](O)[C@H](C)O1 [Daunorubicin] | 29.4 | 97.4 | 157 | 3.31 | 5.33 | 29.1 | 26.5 | 30.2 | – | – | – | – | – | – | – | – | – | – | – |
| O=C1NC2(CCCCC2)C(=O)N1CCN(CCCl)CCCl [Spiromustine] | – | – | – | – | – | – | – | – | – | – | – | 2.15 | 3.46 | 25300 | 54500 | 87600 | 24400 | 25400 | 26600 |
| C/C=C1\NC(=O)[C@H]2CSSCC/C=C/[C@H](CC(=O)N[C@H](C(C)C)C(=O)N2)OC(=O)[C@H](C(C)C)NC1=O [Depsipeptide] | 1.12 | 1.55 | 2.16 | 1.38 | 1.93 | 1.03 | 1.16 | 1.16 | – | – | – | – | – | – | – | – | – | – | – |

— patent publication US20040010001A1, “Methods and compositions for modulating cell proliferation and cell death” (priority 1999, published 2004)
